Measured values as given in US5554631A, “5-pyrrolyl-6-halogeno-2-pyridylmethylsulfinyl benzimidazole derivatives” (Il-Yang Pharm. Co., Ltd., priority 1994, dated 1996).
Where two headings read alike, the source gives them in different places.

Legend:
H^+ /K^+ -ATPase = biological target: T1, H^+ /K^+ -ATPase (Oryctolagus cuniculus, UniProt P27112); assay: Inhibition of H+/K+-ATPase enzyme activity in vitro; assay type: biochemical, rabbit; details: 5 min pre-incubation at 37° C., 4 mM ATP
T1 construct: The gastric mucous membrane was removed from rabbit; from tissue; host or cells: rabbit gastric mucosa, microsomal fraction (77,000 xg)
Procedure: The gastric mucous membrane was removed from rabbit and then centrifuged with 77,000 xg using a ultracentrifuge to separate the microsomal fraction which was used as the source of H^+ /K^+ -ATPase enzyme for this test. 60 μg of H^+ /K^+ -ATPase was pre-incubated with the sample (the compound according to the present invention) for 5 minutes at 37° C. and then 4 mM ATP as the substrate and 4 mM Mg^++, 20 mM K^+ as the cofactor were added thereto. Then, the amount of inorganic phosphorus thus produced was determined using a spectrophotometer at 660 nm and converted into the amount of protein according to Lowry method. […]

gastric juice secretion = assay: Inhibition of gastric juice secretion, Shay method; assay type: in vivo, SD male rats; details: intraduodenal, rat, 5 h; for Inhibition rate, gastric juice secretion: vs normal group
Procedure: (§1) The specific test methods are as follows.
(§2) SD male rats (200±20 g) were fasted for 24 hours, except for water, and then anesthesized with ether. The abdomen of rats was incised and then the pylorus was ligated. The test compounds were suspended or dissolved in […] (carboxymethylcellulose) and injected into duodenum. After the abdomen was suctured, the rats were allowed to stand for 5 hours and then sacrificed with ether. The stomach was removed from rats and the gastric juices were collected. The gastric juice was centrifuged with 10,000×g for 10 minutes at 4° C. to remove the precipitate. The amount of gastric juice and acidity were determined using pH 7.0 end point assay with 0.02N NaOH and then the total acid output was calculated.

acidity = assay: Inhibition of acidity (total acid output), Shay method; assay type: in vivo, SD male rats; details: intraduodenal, rat, 5 h; for Inhibition rate, acidity: vs normal group
Procedure: as §1, §2

[1] = rabbit gastric microsomal H+/K+-ATPase, read-out: IC50

T1 sequence (P27112 2-1035 limits assumed): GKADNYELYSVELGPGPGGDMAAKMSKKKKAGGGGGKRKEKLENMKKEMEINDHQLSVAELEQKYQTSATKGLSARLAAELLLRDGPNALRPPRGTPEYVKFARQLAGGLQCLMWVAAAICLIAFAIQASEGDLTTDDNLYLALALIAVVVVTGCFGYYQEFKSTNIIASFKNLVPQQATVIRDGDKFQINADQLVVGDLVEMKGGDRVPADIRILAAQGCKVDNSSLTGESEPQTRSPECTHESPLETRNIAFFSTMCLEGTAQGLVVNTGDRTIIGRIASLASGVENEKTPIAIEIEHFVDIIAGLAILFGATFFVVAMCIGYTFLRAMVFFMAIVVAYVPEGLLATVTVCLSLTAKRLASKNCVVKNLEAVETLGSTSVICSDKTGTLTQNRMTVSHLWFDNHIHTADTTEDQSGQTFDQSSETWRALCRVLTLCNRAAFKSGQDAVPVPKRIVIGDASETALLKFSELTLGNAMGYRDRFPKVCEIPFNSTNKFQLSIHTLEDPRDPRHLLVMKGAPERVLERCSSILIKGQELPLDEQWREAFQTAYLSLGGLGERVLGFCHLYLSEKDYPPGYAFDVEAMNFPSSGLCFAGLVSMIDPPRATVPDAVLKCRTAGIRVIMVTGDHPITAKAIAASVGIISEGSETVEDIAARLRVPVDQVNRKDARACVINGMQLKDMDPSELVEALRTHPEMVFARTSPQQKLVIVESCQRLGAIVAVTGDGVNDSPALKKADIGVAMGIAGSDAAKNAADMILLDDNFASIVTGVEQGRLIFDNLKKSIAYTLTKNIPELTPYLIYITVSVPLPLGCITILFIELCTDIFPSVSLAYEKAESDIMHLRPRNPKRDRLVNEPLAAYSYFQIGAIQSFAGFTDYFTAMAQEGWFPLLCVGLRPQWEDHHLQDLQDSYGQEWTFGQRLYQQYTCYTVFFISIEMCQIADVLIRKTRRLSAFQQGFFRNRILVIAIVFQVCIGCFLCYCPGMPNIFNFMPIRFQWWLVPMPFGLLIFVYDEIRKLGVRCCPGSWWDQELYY
T1 sequence (P18597 whole entry partner): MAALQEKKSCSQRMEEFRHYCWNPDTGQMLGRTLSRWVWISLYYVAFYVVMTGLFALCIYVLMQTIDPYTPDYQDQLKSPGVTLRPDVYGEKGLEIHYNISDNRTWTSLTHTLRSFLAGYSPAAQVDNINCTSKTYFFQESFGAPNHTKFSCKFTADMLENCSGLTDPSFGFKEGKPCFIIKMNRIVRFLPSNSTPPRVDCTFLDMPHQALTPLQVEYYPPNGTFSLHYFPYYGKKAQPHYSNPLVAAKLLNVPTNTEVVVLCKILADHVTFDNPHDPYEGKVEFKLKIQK

IC50 (H^+ /K^+ -ATPase; [1])	Structure (SMILES)	also measured
420 µM	COc1ccnc(CSc2nc3cc(-n4cccc4)c(F)cc3[nH]2)c1C [Compound 1, 2-[[(4-methoxy-3-methyl)-2-pyridinyl]methylthio]-5-(1H-pyrrol-1-yl)-6-fluoro-1H-benzimidazole]	
9300 µM	Cc1cnc(C[S+]([O-])c2nc3cc(-n4cccc4)c(F)cc3[nH]2)c(C)c1OCC(F)(F)C(F)(F)F (centres unmarked) [Compound 11]	
5.9 µM	COc1ccnc(C[S+]([O-])c2nc3cc(-n4c(C)ccc4C)c(F)cc3[nH]2)c1C (centres unmarked) [Compound 25]	
22 µM	COc1cc(C[S+]([O-])c2nc3cc(-n4c(C)ccc4C)c(F)cc3[nH]2)ncc1C (centres unmarked) [Compound 17]	
5300 µM	Cc1c(OCC(F)(F)C(F)(F)F)ccnc1CS(=O)(=O)c1nc2cc(-n3cccc3)c(F)cc2[nH]1 [Compound 14]	
	Cc1c(OCC(F)(F)C(F)(F)C(F)(F)F)ccnc1C[S+]([O-])c1nc2cc(-n3cccc3)c(F)cc2[nH]1 (centres unmarked) [Compound 13]	IC50 (H^+ /K^+ -ATPase; IC50, rabbit gastric microsomal H+/K+-ATPase): 470 µM
4700 µM	[O-][S+](Cc1ccccn1)c1nc2cc(-n3cccc3)c(F)cc2[nH]1 (centres unmarked) [Compound 9]	
320 µM	Cc1c(OCC(F)(F)F)ccnc1C[S+]([O-])c1nc2cc(-n3c(C)ccc3C)c(F)cc2[nH]1 (centres unmarked) [Compound 23]	
1900 µM	COc1ccnc(C[S+]([O-])c2nc3cc(-n4cccc4)c(F)cc3[nH]2)c1 (centres unmarked) [Compound 8]	
< 40 µM	CCOc1ccnc(C[S+]([O-])c2nc3cc(-n4cccc4)c(F)cc3[nH]2)c1C (centres unmarked) [Compound 5]	Gastric juice volume (gastric juice secretion; 10 mg/kg): 1.63 ± 0.04 ml/100 g BW; Inhibition rate, gastric juice secretion (gastric juice secretion; 10 mg/kg): 42.40%; Gastric juice volume (gastric juice secretion; 30 mg/kg): 1.21 ± 0.10 ml/100 g BW; Inhibition rate, gastric juice secretion (gastric juice secretion; 30 mg/kg): 57.24%; Volume (inhibition of acidity) (acidity; 10 mg/kg): 21.85 ± 2.44 μEq/hr; Inhibition rate, acidity (acidity; 10 mg/kg): 66.78%; Volume (inhibition of acidity) (acidity; 30 mg/kg): 11.84 ± 4.00 μEq/hr; Inhibition rate, acidity (acidity; 30 mg/kg): 82.00%
28 µM	CCOCCOc1ccnc(C[S+]([O-])c2nc3cc(-n4cccc4)c(F)cc3[nH]2)c1C (centres unmarked) [Compound 6, 2-[[(4-(2-ethoxyethoxy)-3-methyl)-2-pyridinyl]methylsulfinyl]-5-(1H-pyrrol-1-yl)-6-fluoro-1H-benzimidazole]	
400 µM	Cc1cnc(C[S+]([O-])c2nc3cc(-n4c(C)ccc4C)c(F)cc3[nH]2)cc1C (centres unmarked) [Compound 18]	
